From patent publication US8951999B2, “Compounds” (Orexo AB, priority 2009, dated 2015) come the findings set out here.

SMILES strings stand for the structures.

This assay has as its target T1, recombinant human mPGES-1 (Homo sapiens, UniProt O14684).
T1 sequence (O14684 1-152): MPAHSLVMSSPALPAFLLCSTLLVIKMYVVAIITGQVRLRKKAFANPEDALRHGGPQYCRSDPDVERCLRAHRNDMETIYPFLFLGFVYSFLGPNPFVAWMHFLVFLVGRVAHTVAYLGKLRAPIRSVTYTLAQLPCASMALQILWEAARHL
As to the kind of experiment: Assay B: mPGES-1 enzyme assay (modified). The assay is classed as biochemical. The settings on record: biological assay B (all other compounds); PGH2 final conc. 2 μM, HTRF; read-out: mPGES-1 inhibitory effect IC50. The procedure:
Assay B: mPGES-1 Enzyme Assay (Modified)
The aim of this assay is to determine the affinity of a test compound for the mPGES-1 enzyme.
47 μl of recombinant human mPGES-1 (˜0.5 μg protein/well) containing microsomal suspension in a buffer containing GSH, (2.5 mmol/L L-Glutathione reduced, dissolved in 0.1 mol/L Phosphat Buffer pH 7.4) is dispensed in a 384-well plate and thereafter 1 μl of the test compound(s) is/are added and incubated for 25 minutes at room temperature. The enzyme reaction is started by the addition of 2 ul PGH2 (final conc. 2 μM) dissolved in water-free Diglyme. After 60 seconds the reaction is terminated by addition of a stop solution containing FeCl2 (10 μL 0.074 mol/l FeCl2). The samples are diluted between 1:25 in PBS (Phosphate Buffered Saline). 10 μl of the diluted samples are transferred to 384-well low volume plate. In order to quantify the amount of PGE2 that has been formed, a homogenous time resolved fluorescent (HTRF) detecting of PGE2 has been performed using a commercially available kit from Cisbio according to the manufactures recommendation. This HTRF-based assay has been described in detail (see: Goedken et al., J Biomol Screen, 2008, 13(7), 619-625). Briefly, the diluted samples are mixed with […] PGE2-d2 conjugate and 5 μl anti-PGE2 cryptate conjugate. After an incubation period of the plates over night, the fluorescence is measured by the use of an appropriate microplate reader.
The fluorescence of Europium cryptate (maxex=307 nm, maxem=620 nm) and d2-PGE2 (maxex=620 nm, maxem=665 nm) are measured.
The extent of the specific HTRF is measured as a ratio of the emission intensity at 665 nm vs. that at 620 nm at an excitation pulse of 320 nm. The quantification plate contains also wells with different concentrations of PGE2 as calibration curve for the calculation of the PGE2 concentrations from the HTRF ratio values.
From all mPGES enzyme assay the background is subtracted and the IC50 is calculated over a nonlinear regression with conventional software.
One may read the IC50 as the point on the concentration scale where inhibition reaches its midpoint. Regarding `CC(C)(C)C(=O)NCc1ccc(Cl)c(C(=O)Nc2ccc(N[C@H]3CC[C@H](C(F)(F)F)CC3)c(C(=O)N[C@H]3CC[C@H](C(F)(F)F)CC3)c2)c1` [Example 56, N-[4-(trans-4-trifluoromethylcyclohexyl)amino-3-[trans-(4-trifluoromethylcyclohexyl)amino]carbonyl-phenyl]-2-chloro-5-(tert-butylcarbonylamino)methyl-benzamide], the IC50 was 128 nM.

In the case of `CC(C)(C(=O)NCc1ccc(Cl)c(C(=O)Nc2ccc(OC3CCOC3)c(C(=O)N[C@H]3CC[C@H](C(F)(F)F)CC3)c2)c1)C(F)(F)F` (some centres unmarked) [Example 67], the IC50 was determined as 5 nM.

In the case of `COCCOc1ccc(NC(=O)c2cc(CNC(=O)C(C)(C)C)ccc2Cl)cc1C(=O)Nc1ccc(Br)cc1` [Example 70], the IC50 is 5 nM.

`CC(C)(C(=O)NCc1ccc(Cl)c(C(=O)Nc2ccc(N3CCC(F)CC3)c(C(=O)Nc3ccc(F)c(Cl)c3)c2)c1F)C(F)(F)F` [Example 57, N-[4-(4-Fluoro-piperidin-1-yl)-3-(3-chloro-4-fluorophenyl)aminocarbonyl-phenyl]-2-fluoro-6-chloro-3-[(2,2,2-trifluoro-1,1-dimethyl-ethyl)carbonylamino]methyl-benzamide]: the IC50 was 2 nM.

Consider `Cc1nc(C(=O)NCc2ccc(Cl)c(C(=O)Nc3ccc(OCC(F)F)c(C(=O)Nc4ccc(Br)cc4)c3)c2)c(C)s1` [Example 168], for which the half-maximal inhibitory concentration (IC50) came to 105 nM.

With `CC(C)(C(=O)NCc1ccc(Cl)c(C(=O)Nc2ccc(OCC(F)F)c(C(=O)Nc3ccc(OC(F)(F)F)c(Cl)c3)c2)c1)C(F)(F)F` [Example 130], the IC50 came out at 4 nM.

As for `CC(C)(C(=O)NCc1ccc(Cl)c(C(=O)Nc2ccc(OCC(F)F)c(C(=O)NCc3ccccc3C(F)(F)F)c2)c1)C(F)(F)F` [Example 84], the concentration for half-maximal inhibition (IC50) was found to be 6 nM.

Regarding `CC(C)(C(=O)NCc1ccc(Cl)c(C(=O)Nc2ccc(OCC(F)F)c(C(=O)NC3CCC(C(F)F)CC3)c2)c1)C(F)(F)F` (centres unmarked) [Example 142], the IC50 came to 6 nM.

In the case of `CC(C)(C(=O)NCc1ccc(Cl)c(C(=O)Nc2ccc(OCC(F)F)c(C(=O)Nc3ccc(Br)cc3F)c2)c1)C(F)(F)F` [Example 100], the IC50 was 5 nM.

Consider `COC(C)(C)C(=O)NCc1ccc(Cl)c(C(=O)Nc2ccc(OCC(F)F)c(C(=O)Nc3ccc(Br)cc3)c2)c1` [Example 160], for which the IC50 turned out to be 7 nM.

Regarding `CC(NC(=O)c1cc(NC(=O)c2c(Cl)ccc(CNC(=O)C(C)(C)C(F)(F)F)c2Cl)ccc1OCC(F)F)C(F)(F)F` (centres unmarked) [Example 159], the IC50 is 7 nM.

In the case of `CC(C)(C(=O)NCc1ccc(Cl)c(C(=O)Nc2ccc(OCC(F)F)c(C(=O)Nc3nc4c(s3)CCC4)c2)c1)C(F)(F)F` [Example 127], the IC50 was 19 nM.

For the compound `CC(C)(C(=O)NCc1ccc(Cl)c(C(=O)Nc2ccc(OCC(F)F)c(C(=O)NCc3ccc(F)cc3C(F)(F)F)c2)c1)C(F)(F)F` [Example 89], the half-maximal inhibitory concentration (IC50) was found to be 4 nM.

On to `CCNC(=O)c1cc(NC(=O)c2cc(CNC(=O)C(C)(C)C(F)(F)F)ccc2Cl)ccc1OCC(F)F` [Example 112], for which the IC50 came to 16 nM.

Take `CC(C)NC(=O)c1cc(NC(=O)c2cc(CNC(=O)C(C)(C)C(F)(F)F)ccc2Cl)ccc1OCC(F)F` [Example 110]: the IC50 is 17 nM.

Take `CC(C)(C(=O)NCc1ccc(Cl)c(C(=O)Nc2ccc(OCC(F)F)c(C(=O)Nc3ccc(F)cc3Cl)c2)c1)C(F)(F)F` [Example 116]: the IC50 amounted to 6 nM.

For `CC(C)(C)C(=O)NCc1ccc(F)c(C(=O)Nc2cnc(OCC(F)F)c(C(=O)Nc3ccc(Br)cc3)c2)c1F` [Example 74], the IC50 worked out at 47 nM.

As for `CC(C)(C(=O)NCc1ccc(Cl)c(C(=O)Nc2ccc(OCC(F)F)c(C(=O)NCC3CC3)c2)c1Cl)C(F)(F)F` [Example 152], the concentration for half-maximal inhibition (IC50) stood at 11 nM.

Regarding `CC(C)(C(=O)NCc1ccc(Cl)c(C(=O)Nc2ccc(OCC(F)F)c(C(=O)NCC3CCC3)c2)c1)C(F)(F)F` [Example 141], the IC50 was 5 nM.

`CNC(=O)c1cc(NC(=O)c2cc(CNC(=O)C(C)(C)C(F)(F)F)ccc2Cl)ccc1OCC(F)F` [Example 97]: the half-maximal inhibitory concentration (IC50) turned out to be 79 nM.

Take `CC(C)(C(=O)NCc1ccc(Cl)c(C(=O)Nc2ccc(OCC(F)F)c(C(=O)Nc3cc(F)cc(Cl)c3)c2)c1)C(F)(F)F` [Example 113]: the IC50 is 4 nM.

Turning to `CN1CCC[C@H]1C(=O)NCc1ccc(Cl)c(C(=O)Nc2ccc(OCC(F)F)c(C(=O)Nc3ccc(Br)cc3)c2)c1` [Example 161], the half-inhibitory concentration (IC50) came out at 13 nM.

`CC(C)(C(=O)NCc1ccc(Cl)c(C(=O)Nc2ccc(OCC(F)F)c(C(=O)NCc3ncccc3C(F)(F)F)c2)c1)C(F)(F)F` [Example 138]: the IC50 was found to be 5 nM.

Take `O=C(Nc1ccc(OCC(F)F)c(C(=O)Nc2ccc(Br)cc2)c1)c1cc(CNC(=O)C(O)C(F)(F)F)ccc1Cl` (centres unmarked) [Example 169]: the half-maximal inhibitory concentration (IC50) turned out to be 9 nM.

On to `CC(C)(C)C(=O)NCc1ccc(Cl)c(C(=O)Nc2ccc(N3CCC(C(F)(F)F)CC3)c(C(=O)N[C@H]3CC[C@H](C(F)(F)F)CC3)c2)c1` [Example 58, N-[4-(4-Trifluoromethyl-piperidin-1-yl)-3-(trans-4-trifluoromethylcyclohexyl)aminocarbonyl-phenyl]-2-chloro-5-(tert-butylcarbonylamino)methyl-benzamide], for which the IC50 came to 3 nM.

With `CC(C)(C(=O)NCc1ccc(Cl)c(C(=O)Nc2ccc(N3CCC(C(F)(F)F)CC3)c(C(=O)NCC3CC3)c2)c1Cl)C(F)(F)F` [Example 59, N-[4-(4-Trifluoromethyl-piperidin-1-yl)-3-(cyclopropylmethyl)aminocarbonyl-phenyl]-2,6-dichloro-3-[(2,2,2-trifluoro-1,1-dimethyl-ethyl)carbonylamino]methyl-benzamide], the 50% inhibitory concentration (IC50) was found to be 5 nM.

As to `CC(C)(C)C1CCC(NC(=O)c2cc(NC(=O)c3cc(CNC(=O)C(C)(C)C(F)(F)F)ccc3Cl)ccc2OCC(F)F)CC1` (centres unmarked) [Example 87], the IC50 came to 5 nM.

As for `CC(C)(C(=O)NCc1ccc(Cl)c(C(=O)Nc2ccc(OCC(F)F)c(C(=O)NC3CCC3)c2)c1)C(F)(F)F` [Example 122], the IC50 was 7 nM.

As for `CC(C)(C(=O)NCc1ccc(Cl)c(C(=O)Nc2ccc(OCC(F)F)c(C(=O)Nc3ncc(Cl)s3)c2)c1)C(F)(F)F` [Example 83], the IC50 amounted to 7 nM.

As for `CC(N)(C(=O)NCc1ccc(Cl)c(C(=O)Nc2ccc(OCC(F)F)c(C(=O)Nc3ccc(Br)cc3)c2)c1)C(F)(F)F` (centres unmarked) [Example 171], the IC50 is 6 nM.

`CC(C)(C(=O)NCc1ccc(Cl)c(C(=O)Nc2ccc(OCC(F)F)c(C(=O)Nc3ccncc3Cl)c2)c1)C(F)(F)F` [Example 137]: the 50% inhibitory concentration (IC50) amounted to 9 nM.

Turning to `CC(C)(C)C(=O)NCc1ccc(Cl)c(C(=O)Nc2ccc(N3CCC(C(F)(F)F)CC3)c(C(=O)NCC3CC3)c2)c1` [Example 63], the IC50 was found to be 5 nM.

As for `CC(C)(C)C(=O)NCc1ccc(Cl)c(C(=O)Nc2ccc(N3CCCC(C(F)(F)F)C3)c(C(=O)Nc3ccc(Br)cc3)c2)c1Cl` (centres unmarked) [Example 180], the IC50 came out at 2 nM.

Take `O=C(Nc1ccc(OCC(F)F)c(C(=O)Nc2ccc(Br)cc2)c1)c1cc(CNC(=O)C2CCCN2c2nccs2)ccc1Cl` (centres unmarked) [Example 164]: the IC50 worked out at 79 nM.

Turning to `CC(NC(=O)c1cc(NC(=O)c2c(Cl)ccc(CNC(=O)C(C)(C)C(F)(F)F)c2Cl)ccc1OCC(F)F)C1CC1` (centres unmarked) [Example 148], the IC50 worked out at 1 nM.

Take `CC(NC(=O)c1cc(NC(=O)c2cc(CNC(=O)C(C)(C)C(F)(F)F)ccc2Cl)ccc1OCC(F)F)C(F)(F)F` (centres unmarked) [Example 99]: the IC50 is 7 nM.

On to `CC(C)(C(=O)NCc1ccc(Cl)c(C(=O)Nc2ccc(OCC(F)F)c(C(=O)NC3CCC(C(F)F)CC3)c2)c1Cl)C(F)(F)F` (centres unmarked) [Example 149], for which the IC50 was determined as 4 nM.

Turning to `CC(C)(C)C(=O)NCc1ccc(Cl)c(C(=O)Nc2cnc(OCC(F)F)c(C(=O)Nc3ccc(Cl)c(F)c3)c2)c1Cl` [Example 76], the IC50 was determined as 12 nM.

For the compound `CC(C)(C(=O)NCc1ccc(Cl)c(C(=O)Nc2ccc(OCC(F)F)c(C(=O)Nc3ccc(F)c(Cl)c3)c2)c1Cl)C(F)(F)F` [Example 145, N-[4-(2,2-difluoroethyl)oxy-3-(4-fluoro-3-chlorophenyl)aminocarbonyl-phenyl]-2,6-dichloro-3-[(2,2,2-trifluoro-1,1-dimethyl-ethyl)carbonylamino]methyl-benzamide], the IC50 came to 10 nM.

`CC(C)(C(=O)NCc1ccc(Cl)c(C(=O)Nc2ccc(OCC(F)F)c(C(=O)NC3CCCC3)c2)c1)C(F)(F)F` [Example 111]: the IC50 stood at 7 nM.

In the case of `CC(C)(C(=O)NCc1ccc(Cl)c(C(=O)Nc2ccc(OCC(F)F)c(C(=O)NC3CCc4ccccc4C3)c2)c1)C(F)(F)F` (centres unmarked) [Example 85], the IC50 is 6 nM.
